The nature of the experiment: Effect on blood pressure, telemetry (Example 17). Particulars: Sprague Dawley rats, 0.1 mg/kg SC. In kind it is in vivo. The procedure: The effect of the compounds on blood pressure was determined in telemetry studies in Sprague Dawley rats at a dosage of 0.1 mg/kg SC.
The rats were previously implanted with a telemetry device (DSI, Saint-Paul, USA, HD-S10, HD-S11 or HD S21) and allowed to recover for a minimum period of 2 weeks before treatment with vehicle or the different peptides. Blood pressure (BP) was recorded through a catheter inserted into the abdominal aorta. The device body was placed in the abdomen. At the end of surgery, animals were placed in individual cages until the end of the study.
Pressure signals were recorded for one hour before the treatment (basal period). Thereafter, the subcutaneous administration of the test compound or its vehicle was performed, under continuous recording of the signal over a 48-hour period. Data acquisition was performed using Hem 4.3 acquisition software (Notocord®, Le Pecq, France) connected to the telemetry device. Hemodynamic parameters were recorded during a […] before treatment and every 4-hour period following subcutaneous administration over 48 hours.
Investigated parameters (calculated from BP signal) were Heart Rate (HR) in beats per minute (bpm), Diastolic and Systolic Blood Pressure (DBP) in mmHg, and Mean Blood Pressure (MBP) in mmHg.
Data from Hem were manipulated using Microsoft Excel®. For each parameter, a basal value was determined as the average calculated over a 1-hour period during the pre-treatment sequence, and the values post treatment were calculated over 4-hour periods ([0-4], [4-8], [8-12], [12-16], [16-20], [20-24], [24-28], [32-36], [36-40], [40-44] and [44-48] hours) covering the 48-hour period following administration.
Representative data are presented in Table 15 below, in which “n” represents the number of animals for which individual values were obtained and “Duration” indicates the last time point for which a significant effect on BP was still seen: Table 15

Starred links: 1 amine or outer side, 2 acyl side, 3 side chain; linkers in the order of their positions; H or OH if unused. Non-standard residues stand in square brackets, D forms with d. Residues, ends and D or L forms follow the SMILES beside them. Groups on a side chain read outwards from the residue. *: point of attachment. C18 diacid = O=C(O)CCCCCCCCCCCCCCCCC(=O)*; γGlu = O=C(O)[C@H](CCC(=O)[*:2])N[*:1]; AEEA = NCCOCCOCC(=O)O; Aib = CC(C)(N)C(=O)O

As for `CC[C@H](C)[C@H](N)C(=O)N[C@H](C(=O)N[C@@H](CC(C)C)C(=O)N[C@@H](CO)C(=O)N[C@@H](CC(C)C)C(=O)N[C@@H](CC(=O)O)C(=O)N[C@@H](C(=O)N1CCC[C@H]1C(=O)N[C@H](C(=O)N[C@@H](CCCCN)C(=O)N[C@@H](CC(C)C)C(=O)N[C@@H](CCCCNC(=O)COCCOCCNC(=O)COCCOCCNC(=O)CC[C@H](NC(=O)CCCCCCCCCCCCCCCCC(=O)O)C(=O)O)C(=O)N[C@@H](CCC(N)=O)C(=O)N[C@H](C(=O)N[C@@H](CC(C)C)C(=O)N[C@@H](CC(C)C)C(=O)N[C@@H](CCCCN)C(=O)N[C@@H](CCC(N)=O)C(=O)N[C@@H](CCC(=O)O)C(=O)N[C@@H](CCCNC(=N)N)C(=O)N[C@@H](CCC(N)=O)C(=O)N[C@@H](CCCCN)C(=O)NC(C)(C)C(=O)N[C@@H](CCC(N)=O)C(=O)N[C@@H](CCCNC(=N)N)C(=O)N[C@@H](CCC(N)=O)C(=O)N[C@@H](CCC(N)=O)C(=O)N[C@@H](C)C(=O)N[C@@H](CCC(=O)O)C(=O)N[C@@H](CCCCN)C(=O)N[C@@H](CC(N)=O)C(=O)N[C@@H](CCCCN)C(=O)N[C@@H](CCC(N)=O)C(=O)N[C@H](C(=O)N[C@@H](CC(C)C)C(=O)N[C@@H](C)C(=O)N[C@@H](CCC(N)=O)C(=O)N[C@H](C(N)=O)C(C)C)[C@@H](C)CC)[C@@H](C)CC)[C@@H](C)CC)C(C)C)C(C)C` [SEQ ID NO: 135, IVLSLDvPIKLK*QILLKQERQKAibQRQQAEKNKQILAQV-NH2] (H-IVLSLD[dV]PIKLK([AEEA-AEEA-γGlu-C18 diacid])QILLKQERQK[Aib]QRQQAEKNKQILAQV-NH2), the “Duration (h): last time point for which a significant effect on BP was still seen” value stood at 30 h, the “Effect on Systolic Pressure % change from baseline 8 h” value is on record as −8.8% and the “Effect on Systolic Pressure % change from baseline 24 h” value was −4.8%.

Consider `CC[C@H](C)[C@H](N)C(=O)N[C@H](C(=O)N[C@@H](CC(C)C)C(=O)N[C@@H](CO)C(=O)N[C@@H](CC(C)C)C(=O)N[C@@H](CC(=O)O)C(=O)N[C@@H](C(=O)N1CCC[C@H]1C(=O)N[C@H](C(=O)N[C@@H](CCCCN)C(=O)N[C@@H](CC(C)C)C(=O)N[C@@H](CCCCNC(=O)COCCOCCNC(=O)COCCOCCNC(=O)CC[C@H](NC(=O)CCCCCCCCCCCCCCCCC(=O)O)C(=O)O)C(=O)N[C@@H](CCC(N)=O)C(=O)N[C@H](C(=O)N[C@@H](CC(C)C)C(=O)N[C@@H](CC(C)C)C(=O)N[C@@H](CCCCN)C(=O)N[C@@H](CCC(N)=O)C(=O)N[C@@H](CCC(=O)O)C(=O)N[C@@H](CCCNC(=N)N)C(=O)N[C@@H](CCC(N)=O)C(=O)N[C@@H](CCCCN)C(=O)N[C@@H](CCCCN)C(=O)N[C@@H](CCC(N)=O)C(=O)N[C@@H](CCCNC(=N)N)C(=O)N[C@@H](CCC(=O)O)C(=O)N[C@@H](CCC(N)=O)C(=O)N[C@@H](C)C(=O)N[C@@H](CCC(=O)O)C(=O)N[C@@H](CCCCN)C(=O)N[C@@H](CC(N)=O)C(=O)N[C@@H](CCCCN)C(=O)N[C@@H](CCC(N)=O)C(=O)N[C@H](C(=O)N[C@@H](CC(C)C)C(=O)N[C@@H](CCC(=O)O)C(=O)N[C@@H](CCC(N)=O)C(=O)N[C@H](C(N)=O)C(C)C)[C@@H](C)CC)[C@@H](C)CC)[C@@H](C)CC)C(C)C)C(C)C` [SEQ ID NO: 137] (H-IVLSLD[dV]PIKLK([AEEA-AEEA-γGlu-C18 diacid])QILLKQERQKKQREQAEKNKQILEQV-NH2), for which the “Duration (h): last time point for which a significant effect on BP was still seen” value amounted to 28 h, the “Effect on Systolic Pressure % change from baseline 8 h” value is −15.9% and the “Effect on Systolic Pressure % change from baseline 24 h” value is listed as −6.5%.

For `CC[C@H](C)[C@H](N)C(=O)N[C@H](C(=O)N[C@@H](CC(C)C)C(=O)N[C@@H](CO)C(=O)N[C@@H](CC(C)C)C(=O)N[C@@H](CC(=O)O)C(=O)N[C@@H](C(=O)N1CCC[C@H]1C(=O)N[C@H](C(=O)N[C@@H](CCCCN)C(=O)N[C@@H](CC(C)C)C(=O)N[C@@H](CCCCNC(=O)COCCOCCNC(=O)COCCOCCNC(=O)CC[C@H](NC(=O)CCCCCCCCCCCCCCCCC(=O)O)C(=O)O)C(=O)N[C@@H](CCC(N)=O)C(=O)N[C@H](C(=O)N[C@@H](CC(C)C)C(=O)N[C@@H](CC(C)C)C(=O)N[C@@H](CCCCN)C(=O)N[C@@H](CCC(N)=O)C(=O)N[C@@H](CCC(=O)O)C(=O)N[C@@H](CCCNC(=N)N)C(=O)N[C@@H](CCC(N)=O)C(=O)N[C@@H](CCCCN)C(=O)N[C@@H](CCCCN)C(=O)N[C@@H](CCC(N)=O)C(=O)N[C@@H](CCCNC(=N)N)C(=O)N[C@@H](CCC(=O)O)C(=O)N[C@@H](CCCCN)C(=O)N[C@@H](C)C(=O)N[C@@H](CCC(=O)O)C(=O)N[C@@H](CCCCN)C(=O)N[C@@H](CC(N)=O)C(=O)N[C@@H](CCCCN)C(=O)N[C@@H](CCC(N)=O)C(=O)N[C@H](C(=O)N[C@@H](CC(C)C)C(=O)N[C@@H](C)C(=O)N[C@@H](CCC(N)=O)C(=O)N[C@H](C(N)=O)C(C)C)[C@@H](C)CC)[C@@H](C)CC)[C@@H](C)CC)C(C)C)C(C)C` [SEQ ID NO: 138] (H-IVLSLD[dV]PIKLK([AEEA-AEEA-γGlu-C18 diacid])QILLKQERQKKQREKAEKNKQILAQV-NH2), the “Duration (h): last time point for which a significant effect on BP was still seen” value worked out at 30 h, the “Effect on Systolic Pressure % change from baseline 8 h” value is −6.1% and the “Effect on Systolic Pressure % change from baseline 24 h” value is −3.6%.

Consider `CC[C@H](C)[C@H](N)C(=O)N[C@H](C(=O)N[C@@H](CC(C)C)C(=O)N[C@@H](CO)C(=O)N[C@@H](CC(C)C)C(=O)N[C@@H](CC(=O)O)C(=O)N[C@@H](C(=O)N1CCC[C@H]1C(=O)N[C@H](C(=O)N[C@@H](CCCCN)C(=O)N[C@@H](CC(C)C)C(=O)N[C@@H](CCCCNC(=O)COCCOCCNC(=O)COCCOCCNC(=O)CC[C@H](NC(=O)CCCCCCCCCCCCCCCCC(=O)O)C(=O)O)C(=O)N[C@@H](CCC(N)=O)C(=O)N[C@H](C(=O)N[C@@H](CC(C)C)C(=O)N[C@@H](CC(C)C)C(=O)N[C@@H](CCC(=O)O)C(=O)N[C@@H](CCC(N)=O)C(=O)N[C@@H](C)C(=O)N[C@@H](CCCNC(=N)N)C(=O)N[C@@H](CCC(N)=O)C(=O)N[C@@H](CCCCN)C(=O)NC(C)(C)C(=O)N[C@@H](CCC(N)=O)C(=O)N[C@@H](CCCNC(=N)N)C(=O)N[C@@H](C)C(=O)N[C@@H](CCC(N)=O)C(=O)N[C@@H](C)C(=O)N[C@@H](CCC(=O)O)C(=O)N[C@@H](CCCCN)C(=O)N[C@@H](CC(N)=O)C(=O)N[C@@H](CCCCN)C(=O)N[C@@H](CCCNC(=N)N)C(=O)N[C@H](C(=O)N[C@@H](CC(C)C)C(=O)N[C@@H](CCC(=O)O)C(=O)N[C@@H](CCCNC(=N)N)C(=O)N[C@H](C(N)=O)C(C)C)[C@@H](C)CC)[C@@H](C)CC)[C@@H](C)CC)C(C)C)C(C)C` [SEQ ID NO: 140, IVLSLDvPIKLK*QILLEQARQKAibQRAQAEKNKRILERV-NH2] (H-IVLSLD[dV]PIKLK([AEEA-AEEA-γGlu-C18 diacid])QILLEQARQK[Aib]QRAQAEKNKRILERV-NH2), for which the “Duration (h): last time point for which a significant effect on BP was still seen” value is listed as 32 h, the “Effect on Systolic Pressure % change from baseline 8 h” value is listed as −19.9% and the “Effect on Systolic Pressure % change from baseline 24 h” value is −3.0%.

For the origin of these results see US12679878B2, “CRF2 receptor agonists and their use in therapy” (SANOFI, priority 2020, dated 2026).
